We go through 14 compounds from US8207329B2, “Synthesis of chlorins and phorbines with enhanced red spectral features” (North Carolina State University, priority 2005, dated 2012).

Data set [1] in a line: Stability on storage and handling. The following applies: for decomposes almost completely in solution within: in solution (such as in ethyl acetate or chlorinated solvent) even at 0° C.; for powdered solid stored without decomposition: in the refrigerator. The data set is classed as physicochemical.
Data set [2] in a line: Absorption spectra obtained in toluene at room temperature. It is filed as physicochemical. The note with it: for redshift of the Qy band: Example 1, versus benchmark chlorin lacking the 13-substituent (Zn-11 or 11); for redshift of the Qy band / ΔνQy: toluene; for Qy band: figure legends (FIG. 1, 2, 4, 5), toluene at room temperature, normalized at the B bands; for ΔνQy: redshift relative to the parent chlorin (ZnC or Zn—M^10).
Source text: (§1) Absorption Spectra. The spectral properties of interest in the chlorins include the position of the long-wavelength Qy transition, the intensity of the Qy transition, and the fluorescence quantum yield of the chlorin. The intensity of the Qy transition can be assessed by the measured molar absorption coefficient; however, comparisons of such values are somewhat unreliable given the experimental variability encountered upon handling small quantities of materials. A better comparison is achieved by examination of the ratio of the intensities of the B and Qy bands for a given compound (B/Qy ratio), which is determined simply by absorption spectroscopy without requiring determination of the molar absorption coefficient. For a wide variety of applications, bathochromic and hyperchromic shifts of the Qy band are desired (i.e., shifted to longer wavelength and intensified), thereby affording strong absorption in the deep-red region.
General. ^1H NMR (400 MHz) and ^13C NMR (75 MHz) spectra were collected at room temperature in CDCl3. Absorption spectra were obtained in toluene at room temperature. Chlorins were analyzed by laser desorption mass spectrometry (LD-MS) in the absence of a matrix. Fast atom bombardment mass spectrometry (FAB-MS) data are reported for the molecule ion or protonated molecule ion. Melting points are uncorrected. All commercially available materials were used as received. All palladium-coupling reactions were carried out using standard Schlenk-line techniques.
as §1, with “B. Absorption” for “Absorption”, “Spectroscopy.” for “Spectra.”, “increased” for “intensified), thereby affording strong absorption”, “intensity).” for “the deep-red region.”
General. ^1H NMR (400 MHz) and ^13C NMR (75 MHz) spectra were collected at room temperature in CDCl3 unless noted otherwise. Absorption spectra were obtained in toluene at room temperature. Chlorins were analyzed by laser desorption mass spectrometry (LD-MS) in the absence of a matrix. Metalation of free base chlorins was monitored by fluorescence spectroscopy. Melting points are uncorrected. All commercially available materials were used as received.

Data set [3] in a line: Fluorescence spectra and fluorescence quantum yields in toluene at room temperature. The data set is classed as physicochemical. The note with it: for fluorescence quantum yield (Φf): standard Zn-11 (Φf=0.065). As to the method: Fluorescence Spectroscopy. The fluorescence spectra and fluorescence quantum yields reported herein were collected in toluene at room temperature. Measurements of fluorescence quantum yield (Φf) were carried out using chlorin Zn-11 (Φf=0.065) as a standard (Strachan, J.-P. et al., J. Org. Chem. 2000, 65, 3160-3172).

The conditions of data set [4]: cited from earlier work; for Qy band / εQy: chlorophylls; for Qy band: FIG. 3, in diethyl ether at room temperature; for εQy: Strain and Svec (FIG. 3).
For data set [5] the following is noted: comparison values, Strachan et al.; cited from earlier work.
The mark [6] stands for this setting: Table 1, in toluene at room temperature.
[7] abbreviates: Table 1, literature value, in diethyl ether.
The mark [8] stands for this setting: Table 3, Ref Jones et al., in diethyl ether.
Where [9] appears, read: Table 3, zinc chlorins in toluene at room temperature.

Several values for one entry are separate records, joined by “and”; a condition that tells them apart may be missing. Equal values may be shown once. Read-outs that look alike come from different tables or passages of the source.

For the compound `CCCCB(CCCC)n1c(C(=O)c2ccc(C)cc2)ccc1C(c1ccc[nH]1)c1c(C)cc(C)cc1C` (centres unmarked) [Bu2B-3, 10-(Dibutylboryl)-5-mesityl-1-p-toluoyldipyrromethane], the “stability (in words)” value in data set [1] was “decomposes partially at room temperature”.
Regarding `CC(=O)c1cc2[n]3c1=CC1=NC(=Cc4ccc([n]4[Zn]3)C(c3ccc(C)cc3)=C3C=CC(=N3)C=2c2c(C)cc(C)cc2C)C(C)(C)C1` [Zn-8, Zn(II)-13-Acetyl-17,18-dihydro-10-mesityl-18,18-dimethyl-5-p-tolylporphyrin], in data set [2], the “redshift of the Qy band” value was 27 nm and the Qy band was found to be 632 nm. In data set [2] (setting [6]), the B/Qy intensity ratio amounted to 2.9; the “Log ε (M^−1cm^−1) (Qy band)” value amounted to 4.75 M^−1cm^−1; the “λmax (nm), B” value came to 424 nm; the “λmax (nm), Qy” value is given as 635 nm. In data set [3], the “strong / dominant Qy(0,0) fluorescence band” value is “around 641 nm”, the “weak emission feature / broad weak band” value is 670-720 nm and the “fluorescence quantum yield (Φf)” value turned out to be 0.24.
Consider `C=Cc1c(C)c2cc3nc(c4c5[n-]c(cc6nc(cc1[n-]2)C(C=O)=C6CC)c(C)c5C(=O)[C@@H]4C(=O)OC)[C@@H](CCC(=O)OC/C=C(\C)CCC[C@H](C)CCC[C@H](C)CCCC(C)C)[C@@H]3C.[Zn+2]` [Zn-chlorophyll b], for which, in data set [4] (setting [7]), the B/Qy intensity ratio is reported as 2.9; the “λmax (nm), B” value was 446 nm; the “λmax (nm), Qy” value is given as 634 nm. Also, in data set [4] (setting [8]), the B/Qy ratio is reported as 2.9; the “λmax (nm), B” value was 446 nm; the “λmax (nm), Qy” value was 634 nm.
Regarding `C=Cc1cc2[n]3c1C=C1C=CC(=N1)C(c1c(C)cc(C)cc1C)=c1ccc([n]1[Zn]3)=CC1=NC(=C2)C(C)(C)C1` [ZnC-V^3M^10, Zn(II)-17,18-Dihydro-10-mesityl-18,18-dimethyl-3-vinylporphyrin], the “ΔνQy” value in data set [2] (Table 3) was found to be 400 cm⁻¹. In data set [2] (setting [9]), the B/Qy ratio is reported as 3.3; the “λmax (nm), B” value was found to be 413 nm; the “λmax (nm), Qy” value is 621 nm.
Turning to `C=Cc1c(C)c2cc3nc(c4c5[n-]c(cc6nc(cc1[n-]2)C(C)=C6CC)c(C)c5C(=O)[C@@H]4C(=O)OC)[C@@H](CCC(=O)OC/C=C(\C)CCC[C@H](C)CCC[C@H](C)CCCC(C)C)[C@@H]3C.[Mg+2]` [chlorophyll a], in data set [4] (setting [7]), the B/Qy intensity ratio is 1.3; the “λmax (nm), B” value is reported as 430 nm; the “λmax (nm), Qy” value is on record as 662 nm. The B band in data set [4] (chlorophyll a, text (FIG. 3)) is recorded as 430 nm. Besides, in data set [4], the Qy band is listed as 662 nm and the εQy is 86,300 M^−1cm^−1.
Regarding `C=Cc1c(C)c2cc3nc(c4c5[n-]c(cc6nc(cc1[n-]2)C(C=O)=C6CC)c(C)c5C(=O)[C@@H]4C(=O)OC)[C@@H](CCC(=O)OC/C=C(\C)CCC[C@H](C)CCC[C@H](C)CCCC(C)C)[C@@H]3C.[Mg+2]` [chlorophyll b], in data set [4], the Qy band was 642 nm and 644 nm; the εQy is on record as 56,100 M^−1cm^−1.
Consider `Cc1ccc(C(=O)c2ccc(C(c3cc(Br)c(Br)[nH]3)c3c(C)cc(C)cc3C)[nH]2)cc1` (centres unmarked) [compound 4, 8,9-Dibromo-5-mesityl-1-(4-methylbenzoyl)dipyrromethane], for which the “decomposes almost completely in solution within” value in data set [1] lay in the range of 8 to 10 h. For the same compound, the “decomposed almost completely in solution within” value in data set [1] (purified compound in solution even at 0° C.) is 8 to 10 h. Moreover, the “powdered solid stable on storage without decomposition” value in data set [1] (storage at −10° C.) lay in the range of 1 to 2 days.
In the case of `CC(=O)c1cc2[nH]c1cc1nc(cc3ccc([nH]3)c(-c3ccc(C)cc3)c3nc(c2-c2c(C)cc(C)cc2C)C=C3)C(C)(C)C1` [compound 8, 13-Acetyl-17,18-dihydro-10-mesityl-18,18-dimethyl-5-p-tolylporphyrin], in data set [2] (setting [6]), the B/Qy intensity ratio is 2.3; the “Log ε (M^−1cm^−1) (Qy band)” value is 4.67 M^−1cm^−1; the “λmax (nm), B” value came out at 422 nm; the “λmax (nm), Qy” value came to 661 nm. Besides, in data set [3], the “strong / dominant Qy(0,0) fluorescence band” value was “approximately 668 nm”; the “weak emission feature / broad weak band” value was ~711 nm and ~744 nm; the “fluorescence quantum yield (Φf)” value turned out to be 0.23.
For the compound `Cc1ccc(-c2c3nc(c(-c4c(C)cc(C)cc4C)c4cc5c([nH]4)c(c4nc(cc6ccc2[nH]6)C(C)(C)C4)CC5=O)C=C3)cc1` [compound 10, 18,18-Dimethyl-10-mesityl-13^1-oxo-5-p-tolylphorbine], in data set [2], the “redshift of the Qy band” value amounted to 19 nm and the Qy band was determined as 660 nm. In data set [2] (setting [6]), the B/Qy intensity ratio worked out at 2.5; the “λmax (nm), B” value worked out at 417 nm; the “λmax (nm), Qy” value came out at 660 nm. Moreover, in data set [5], the “fluorescence quantum yield (Φf)” value is recorded as 0.29.
In the case of `O=Cc1ccc(Cc2cc(Br)c(Br)[nH]2)[nH]1` [compound 14, 8,9-Dibromo-1-formyldipyrromethane], the “powdered solid stored without decomposition” value in data set [1] is listed as 2-3 weeks.
`Cc1cc(C)c(C(c2ccc(C=O)[nH]2)c2cc(Br)c(Br)[nH]2)c(C)c1` (centres unmarked) [compound 16, 8,9-Dibromo-1-formyl-5-mesityldipyrromethane]: in data set [1], the “decomposes almost completely in solution within” value was 18 to 20 h and the “powdered solid stored without decomposition” value lay within 5 to 7 days.
`CC(=O)CC(C)(C)C(Cc1ccc[nH]1)[N+](=O)[O-]` (centres unmarked) [compound 19, 4,4-Dimethyl-5-nitro-6-(1H-pyrrol-2-yl)hexan-2-one]: in data set [1] (neat or in solution, at room temperature), the “colour change from yellow to black indicating partial decomposition” value is 1 to 2 days.
On to “Zn(II)-3-(2-(Triisopropylsilyl)ethynyl)-17,18-dihydro-10-mesityl-18,18-dimethylporphyrin [ZnC-E^3M^10]”, for which the “ΔνQy” value in data set [2] (Table 3) was 550 cm⁻¹. In data set [2] (setting [9]), the B/Qy ratio was 2.3; the “λmax (nm), B” value turned out to be 416 nm; the “λmax (nm), Qy” value is 627 nm.
For the compound pheophytin a, in data set [4] (setting [7]), the B/Qy intensity ratio is 2.1; the “Log ε (M^−1cm^−1) (Qy band)” value is on record as 5.12; the “λmax (nm), B” value was 408 nm; the “λmax (nm), Qy” value is reported as 667 nm.
